Several values for one entry are separate records, joined by “and”; a condition that tells them apart may be missing. Equal entries are not always repeated. Structures can show the parent of a compound that is named as a salt. Where two headings read alike, the source gives them in different places.

For orientation: fraction remaining means what is left of the initial amount, in per cent. As a reminder, the % Inhibition is how much of the control response was suppressed.

Data set [1] concerns beta adrenergic receptor (heart rate response to isoproterenol). The experiment in a line: Duration and potency of beta-blocking action in vivo, 3-hour infusion in pentobarbital-anesthetized dogs. Conditions: for Recovery Time 50% / Recovery Time 80% / Potency / % I (Percent inhibition of heart rate response to isoproterenol): Table II; for Recovery Time 50% / Recovery Time 80%: after termination of 3-hour infusion; for Potency: infusion rate adjusted so isoproterenol inhibition averaged about 50% at end of 3-hour infusion; for % I (Percent inhibition of heart rate response to isoproterenol): isoproterenol 0.5 μg/kg bolus, 3-hour infusion; for % Inhibition / Time for 50% Rec. / Time for 80% Rec.: Table IV, dose 2.4 / 22.0 ug/kg/min. Also noted: species or system dog. The protocol: The duration of β-blockade was determined in vivo using pentobarbital-anesthetized dogs instrumented for measurement of heart rate using a Beckman cardiotachometer triggered electronically by a phasic aortic blood pressure signal. Both vagus nerves were severed in the cervical region and the animals were mechanically ventilated. The experimental design used employed a 3-hour infusion of test compound. Bolus doses of isoproterenol (0.5 μg/kg) were used to assess the degree of β-blockade and recovery from β-blockade after […] of the infusion. The doses were spaced at 10-minute intervals and were given before, during and following the infusion of test compounds. The infusion rate was adjusted so that at the end of the 3-hour infusion period the degree of isoproterenol inhibition averaged about 50% of control. Following termination of blocker infusion, percent recovery from β-blockade was computed and the time associated with 80% recovery estimated.

In data set [2] the target is T1, beta adrenergic receptor (guinea pig right atria) (Cavia porcellus, UniProt H0W3H1).
T1 construct: guinea pig right atria and guinea pig tracheal strips mounted in a tissue bath; from tissue; host or cells: guinea pig right atria, spontaneously beating
As to the kind of experiment: Beta-blocking activity in vitro, guinea pig right atria (blockade of isoproterenol rate response).

A short description of data set [3]: Half-lives of beta blockers in dog liver homogenate (procedure D). The class given is in vitro ADME. Conditions: 33% (w/v) homogenate, 37° C., read-out: T1/2 dog liver homogenate. The method, then: (§1) The rate of disappearance of a compound is expressed as the half-life (T1/2), which is the time period in which one half of the initial amount of compound tested disappears. In each experiment, 1 ml of a solution containing 50 μg of the test compound was added to 1 ml of whole blood or 1 ml of a 33% (w/v) liver homogenate. The samples were incubated in a Dubnoff shaking metabolic incubator for 2.5, 5.0, 10.0, 20.0, 30.0 and 60.0 minutes at 37° C. At the designated time periods, the test mixtures were removed from the incubator and transferred to a 0° C. ice bath. Acetonitrile (2 ml) was immediately added and the mixtures were mixed to stop enzymatic hydrolysis. Zero time samples were prepared by adding 2 ml of acetonitrile to denature the proteins prior to addition of the test compounds. After centrifugation to sediment denatured proteins, 2 ml of the supernatant was removed and analyzed by high pressure liquid chromatography, using a mobile phase of 60% acetonitrile/40% 0.05 m sodium phosphate buffer (pH 6.6), a U.V. detector and Waters u Bondapak Phenyl column. The half life of each test compound was determined graphically by plotting the decrease in concentrations as a function of time.

Data set [4] in a line: Half-lives of beta blockers in dog whole blood (procedure D). Format: in vitro ADME. Conditions: 37° C., read-out: T1/2 dog blood. The method, then: as §1
The nature of data set [5]: Enzymatic hydrolysis of beta blockers by dog aqueous humor (procedure C). Format: in vitro ADME. Particulars: for remaining at 1 h / remaining at 2 h: 37° C.; for remaining at 1 h: read-out: Percent drug remaining, dog aqueous humor, 1 HR; for remaining at 2 h: read-out: Percent drug remaining, dog aqueous humor, 2 HR; for half-life: approximate value determined by procedure C, read-out: T1/2 dog aqueous humor. The method, then:
(§2) Chemicals--Acetonitrile was "HPLC" grade. Distilled water was used to dissolve the compounds and 0.01N HCl was used to dissolve compounds requiring an acidic pH for dissolution.
(§3) Enzyme Source--Fresh aqueous humor was collected from eyes of dogs using a 23-gauge needle while fresh dog blood was collected into heparinized Vacutainer tubes. Fresh liver was homogenized in 0.9% NaCl using a Potter-Elvehjem Teflon pestle and glass homogenizer making a 25% (W/V) homogenate.
(§4) Incubation Condition--A 0.5 ml aliquot of dog aqueous humor, blood or liver homogenate was incubated with 12.5 μg (0.5 ml) of beta blocker in a Dubnoff shaking metabolic incubator at 37° C. for 60 and 120 min. Denatured tissue controls were prepared by adding 2.0 ml of acetonitrile into 0.5 ml of aqueous humor, blood or liver homogenate to destroy esterase activities prior to addition of the beta blockers. The controls were then incubated at 37° C. for 120 min. After 60 and 120 min, the incubations were terminated by addition of 2 ml of acetonitrile and immediately mixed by a Vortex® to stop esterase activities.
(§5) Sample Processing and Data Analyses--All samples were centrifuged at 4000 RPM for 10 min to sediment denatured proteins. The resultant supernatants were transferred to WISP® vials and analyzed using an HPLC assay developed for beta blockers. The hydrolysis of beta blockers by aqueous humor, blood and liver homogenate was determined by disappearance of the compounds. The extent of enzymatic hydrolysis by each tissue was determined by comparing the amount of each compound (absolute peak area) recovered at each time point to the amount of each compound (absolute peak area) in denatured tissue control and aqueous control samples. The results of these experiments are shown in Tabe III.

Data set [6] can be described thus: Enzymatic hydrolysis of beta blockers by dog blood (procedure C). The class given is in vitro ADME. Conditions: dog, blood, 37° C.; for remaining at 1 h: read-out: Percent drug remaining, dog blood, 1 HR; for remaining at 2 h: read-out: Percent drug remaining, dog blood, 2 HR. The method, then: as §2, §3, §4, §5
Data set [7] in a line: Enzymatic hydrolysis of beta blockers by dog liver homogenate (procedure C). Format: in vitro ADME. Conditions: dog, liver homogenate, 37° C.; for remaining at 1 h: read-out: Percent drug remaining, dog liver homogenate, 1 HR; for remaining at 2 h: read-out: Percent drug remaining, dog liver homogenate, 2 HR. The method, then: as §2, §3, §4, §5
[8] abbreviates: Table I, guinea pig right atria, isoproterenol agonist, 60-minute incubation, 37° C., read-out: PA2 Rt. Atria (converted).

T1 sequence (H0W3H1 1-470): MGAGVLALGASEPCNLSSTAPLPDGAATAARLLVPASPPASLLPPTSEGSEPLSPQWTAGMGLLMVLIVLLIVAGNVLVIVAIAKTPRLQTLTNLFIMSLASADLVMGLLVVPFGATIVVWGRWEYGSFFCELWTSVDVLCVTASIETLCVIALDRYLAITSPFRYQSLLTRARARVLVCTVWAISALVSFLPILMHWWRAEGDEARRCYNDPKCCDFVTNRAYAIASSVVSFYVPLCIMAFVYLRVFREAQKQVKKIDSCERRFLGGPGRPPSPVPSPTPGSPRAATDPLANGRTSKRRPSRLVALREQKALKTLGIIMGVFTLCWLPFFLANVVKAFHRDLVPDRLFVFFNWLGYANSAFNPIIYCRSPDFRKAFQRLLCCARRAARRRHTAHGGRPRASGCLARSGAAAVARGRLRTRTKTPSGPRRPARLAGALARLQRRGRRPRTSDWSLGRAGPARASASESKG

In the case of `CC(C)(CNC(=O)C1CCCCC1)NCC(O)COC(=O)c1ccccc1F` (stereo not shown) [Example VI, 3-[1,1-Dimethyl-2-(cyclohexylcarbonylamino)]ethylamino-2-hydroxypropyl 2-Fluorobenzoate Oxalate], in data set [1], the “Recovery Time 50%” value was found to be 8 ± 3 min, the “Recovery Time 80%” value is given as 12 ± 3 min, the Potency was 1.4 mg/kg/180 min and the “% I (Percent inhibition of heart rate response to isoproterenol)” value is given as 61%. Besides, in data set [2] (setting [8]), the Kb was 20 nM.
As to `CC(C)C(=O)NCC(C)(C)NCC(O)COC(=O)c1ccccc1F` (stereo not shown) [Example V, 3-[1,1-Dimethyl-2-(isopropylcarbonylamino)]ethylamino-2-hydroxypropyl 2-Fluorobenzoate Oxalate Monohydrate], the half-life in data set [3] stood at 3.5 min. Further, in data set [1] (Table II footnote c), the “experiments did not recover to 80% within 60 min” value was 2/6. Further, in data set [1], the “Recovery Time 50%” value stood at 10 ± 2 min, the “Recovery Time 80%” value was determined as 22 ± 6 min, the Potency is 0.6 mg/kg/180 min and the “% I (Percent inhibition of heart rate response to isoproterenol)” value was determined as 62 ± 5%. For the same compound, in data set [4], the half-life stood at 20 min. Moreover, in data set [5], the amount remaining at 1 h turned out to be 75%, the fraction remaining at 2 h was 49% and the half-life was around 120 min. Moreover, the Kb in data set [2] (setting [8]) is 158 nM. In data set [6], the share remaining at 1 h was found to be 12% and the fraction remaining at 2 h is 8%. Besides, in data set [7], the amount remaining at 1 h was found to be 0% and the amount remaining at 2 h was found to be 0%.
As for `CC(C)C(=O)NCCNCC(O)COC(=O)c1ccccc1F` (stereo not shown) [Example I, 3-[[2-(Isopropylcarbonylamino)]ethyl]amino-2-hydroxypropyl 2-Fluorobenzoate Hydrochloride], the Kb in data set [2] (setting [8]) was 794 nM.
Take `CC(=O)NCC(C)(C)NCC(O)COC(=O)c1ccccc1F` (stereo not shown) [IV, 3-[1,1-Dimethyl-2-(methylcarbonylamino)]ethylamino-2-hydroxypropyl 2-Fluorobenzoate]: in data set [1], the “Recovery Time 50%” value is reported as 7 min, the “Recovery Time 80%” value worked out at 35 min, the Potency is recorded as 2.7 mg/kg/180 min and the “% I (Percent inhibition of heart rate response to isoproterenol)” value is reported as 61%. Besides, the half-life in data set [4] came to 7.5 min. For the same compound, in data set [5], the amount remaining at 1 h stood at 87%, the fraction remaining at 2 h came out at 52% and the half-life is around 120 min. Also, the Kb in data set [2] (setting [8]) is 31.6 nM. In data set [6], the amount remaining at 1 h worked out at 0% and the amount remaining at 2 h was found to be 0%. Also, in data set [7], the share remaining at 1 h worked out at 39% and the amount remaining at 2 h was 23%.
As for `CC(C)NC[C@H](O)COc1cccc2ccccc12` (racemic) [Propanolol, reference compound], in data set [1], the Potency is recorded as 0.2 mg/kg/180 min and the “% I (Percent inhibition of heart rate response to isoproterenol)” value amounted to 67 ± 6%.
With `CC(C)(CNS(=O)(=O)c1ccccc1)NCC(O)COC(=O)c1ccccc1F` (stereo not shown) [VIII, 3-[1,1-Dimethyl-2-(phenylsulfonylamino)]ethylamino-2-hydroxypropyl 2-Fluorobenzoate Oxalate], the “% I (Percent inhibition of heart rate response to isoproterenol)” value in data set [1] is 43% and 55%. Also, in data set [4], the half-life amounted to 15 min. In addition, the Kb in data set [2] (setting [8]) is 100 nM. In data set [6], the amount remaining at 1 h was found to be 0% and the fraction remaining at 2 h was found to be 0%. In data set [7], the share remaining at 1 h stood at 0% and the amount remaining at 2 h came to 0%.
Take `CC(C)(CNC(=O)N1CCOCC1)NCC(O)COC(=O)c1ccccc1` (stereo not shown) [XXXIII, 3-[1,1-Dimethyl-2-(1-morpholinocarbonylamino)]ethylamino-2-hydroxypropyl Benzoate Oxalate Hemihydrate]: in data set [2] (setting [8]), the Kb is 5.01 nM.
Turning to `CNC(=O)NCC(C)(C)NCC(O)COC(=O)c1ccccc1F` (stereo not shown) [Example XI, 3-[1,1-Dimethyl-2-(methylaminocarbonylamino)]ethylamino-2-hydroxypropyl 2-Fluorobenzoate Hemioxalate], in data set [1], the “Recovery Time 80%” value is on record as above 60 min; the Potency is 0.2 mg/kg/180 min; the “% I (Percent inhibition of heart rate response to isoproterenol)” value is 81% and 71%. Further, in data set [2] (setting [8]), the Kb is 316 nM.
On to `CC(C)(CNC(=O)N1CCOCC1)NCC(O)COC(=O)c1ccccc1Cl` (stereo not shown) [XXXIV, 3-[1,1-Dimethyl-2-(1-morpholinocarbonylamino)]ethylamino-2-hydroxypropyl 2-Chlorobenzoate Oxalate], for which the Kb in data set [2] (setting [8]) was 12.6 nM.
Turning to `CC(C)(CNC(=O)N1CCCCC1)NCC(O)COC(=O)c1ccco1` (stereo not shown), in data set [1], the “% Inhibition” value is listed as 59%, the “Time for 50% Rec.” value was 5 min and the “Time for 80% Rec.” value was found to be 17 min. For the same compound, in data set [2] (Table IV, read-out: pA2 (atria) (converted)), the Kb is 100 nM.
As for `COCCOC(=O)NCC(C)(C)NCC(O)COC(=O)c1ccccc1F` (stereo not shown) [XXXI, 3-[1,1-Dimethyl-2-[2-[(2-methoxy)ethoxycarbonylamino]]ethylamino-2-hydroxypropyl 2-Fluorobenzoate Oxalate], the Kb in data set [2] (setting [8]) was 20 nM.
As for `CN(C)S(=O)(=O)NCC(C)(C)NCC(O)COC(=O)c1ccccc1F` (stereo not shown) [XXXII, 3-[1,1-Dimethyl-2-(dimethylaminosulfonylamino)]ethylamino-2-hydroxypropyl 2-Fluorobenzoate Oxalate], the Kb in data set [2] (setting [8]) was 39.8 nM.
`CC(C)(CNC(=O)N1CCOCC1)NCC(O)COC(=O)c1ccc(O)cc1` (stereo not shown) [XXXVI, 3-[1,1-Dimethyl-2-(1-morpholinocarbonylamino)]ethylamino-2-hydroxypropyl 4-Hydroxbenzoate Oxalate]: the Kb in data set [2] (setting [8]) is 7.94 nM.
In the case of `CC(C)(CNC(=O)N1CCOCC1)NCC(O)COC(=O)c1ccco1` (stereo not shown), in data set [1], the “% Inhibition” value is on record as 40%, the “Time for 50% Rec.” value is 9 min and the “Time for 80% Rec.” value is 30 min. In addition, the “pA2 (atria)” value in data set [2] (Table IV) is listed as 7.6.
With `Cc1cc(O)ccc1C(=O)OCC(O)CNC(C)(C)CNC(=O)N1CCOCC1` (stereo not shown) [XXXVII, 3-[1,1-Dimethyl-2-(1-morpholinocarbonylamino)]ethylamino-2-hydroxypropyl 2-Methyl-4-hydroxybenzoate Oxalate], in data set [2] (Table I, guinea pig right atria, isoproterenol agonist, 60-minute incubation, 37° C.), the “PA2 Rt. Atria” value is recorded as 8.2.
In the case of `CC(=O)NCC(C)NCC(O)COC(=O)c1ccccc1F` (stereo not shown) [III, 3-[1-methyl-2-(methylcarbonylamino)]ethylamino-2-hydroxypropyl 2-Fluorobenzoate], in data set [2] (setting [8]), the Kb was above 501 nM.
Take `O=C(Cc1ccccc1)NCCNCC(O)COC(=O)c1ccccc1F` (stereo not shown) [XIII, 3-[2-(Benzylcarbonylamino)ethyl]amino-2-hydroxypropyl 2-Fluorobenzoate Hydrochloride]: in data set [2] (setting [8]), the Kb was above 1000 nM.
Turning to `CC(C)(CNC(=O)N1CCOCC1)NCC(O)COC(=O)c1ccc(O)c(O)c1` (stereo not shown) [Example XXXV, 3-[2-[1,1-Dimethyl-2-(1-morpholinocarbonylamino)]ethyl]amino-2-hydroxypropyl 3,4-Dihydroxybenzoate Oxalate Monohydrate], the Kb in data set [2] (setting [8]) is 6.31 nM.

Values taken from patent publication US4798892A, “2-hydroxypropylamine heteroaryl ester derivatives” (priority 1986, dated 1989).
